The source of these data is patent US20030087395A1, “Cardiotrophin-like cytokine” (Human Genome Sciences, Inc., priority 1997, published 2003).

The test system of experiment [1] is Primary cardiomyocytes. Nature of the experiment: Cardiac myocyte hypertrophy, cell counts in culture. The format is cell-based. Particulars: counted 48 to 72 hours post-treatment; four fields in three independent cultures, averaged. The procedure:
(§1) Primary cardiomyocytes, primary neuronal cultures, or other cells are plated at a low density and cultured using standard culturing techniques. […] Cultures are evaluated at a point between 48 and 72 hours post-treatment by counting the number of cells in four non-overlapping fields in three independent cultures and averaging the results.

In experiment [2] the test system is primary neuronal cultures (sympathetic neuron counts). Nature of the experiment: Neuron counts in primary neuronal cultures. Format: cell-based. As to conditions: counted 48 to 72 hours post-treatment; four fields in three independent cultures, averaged. The procedure:
as §1

Experiment [3] has as its system STATS. Particulars: numbers of the STATs activated; adapted from Schidler and Darnell review; cited from earlier work.
The test system of experiment [4] is GAS or ISRE. Particulars: element bound; adapted from Schidler and Darnell review; cited from earlier work.

Regarding `CNC[C@H](O)c1cccc(O)c1` [Phenylephrine, reference compound], the “No. Active Myocytes” value in experiment [1] was found to be 92. The “No. Neurons” value in experiment [2] was 28.

Take “EGF: ligand of Receptor Tyrosine Kinases”: the STATS in experiment [3] is listed as 1,3. In addition, the “GAS or ISRE” value in experiment [4] is recorded as “GAS (IRF1)”.

GH: Growth hormone family ligand: the STATS in experiment [3] was 5.

GM-CSF: gp140 family ligand (myeloid): the STATS in experiment [3] is recorded as 5. In addition, in experiment [4], the “GAS or ISRE” value is on record as “GAS”.

For IL-5: gp140 family ligand (myeloid), in experiment [3], the STATS was 5. In experiment [4], the “GAS or ISRE” value was “GAS”.

Take IL-6: gp130 family ligand (Pleiotropic): the STATS in experiment [3] is 1,3. Further, in experiment [4], the “GAS or ISRE” value is recorded as “GAS”.

On to IL-9: g-C family ligand (lymphocytes), for which the STATS in experiment [3] was 5. Besides, in experiment [4], the “GAS or ISRE” value was “GAS”.

Regarding IL-13: g-C family ligand (lymphocyte), the STATS in experiment [3] is recorded as 6. Further, the “GAS or ISRE” value in experiment [4] is listed as “GAS”.

With IL-15: g-C family ligand, the STATS in experiment [3] was 5. In addition, the “GAS or ISRE” value in experiment [4] was “GAS”.

For the molecule PDGF, the STATS in experiment [3] was 1,3.

B1: IL-4: g-C family ligand (lymph/myeloid) (protein, UniProt P05112 25-153, looked up)
Interleukin-4: HKCDITLQEIIKTLNSLTEQKTLCTELTVTDIFAASKNTTEKETFCRAATVLRQFYSHHEKDTRCLGATAQQFHRHKQLIRFLKRLDRNLWGLAGLNSCPVKEANQSTLENFLERLKTIMREKYSKCSS
Turning to B1, in experiment [3], the STATS is recorded as 6. In addition, the “GAS or ISRE” value in experiment [4] is reported as “GAS”.

B2: OnM: gp130 family ligand (Pleiotropic) (protein, UniProt P13725 26-221, looked up)
Oncostatin-M: AAIGSCSKEYRVLLGQLQKQTDLMQDTSRLLDPYIRIQGLDVPKLREHCRERPGAFPSEETLRGLGRRGFLQTLNATLGCVLHRLADLEQRLPKAQDLERSGLNIEDLEKLQMARPNILGLRNNIYCMAQLLDNSDTAEPTKAGRGASQPPTPTPASDAFQRKLEGCRFLHGYHRFMHSVGRVFSKWGESPNRSRR
Turning to B2, the STATS in experiment [3] is on record as 1,3.

B3: G-CSF: gp130 family ligand (Pleiotropic) (protein, UniProt P09919 31-207, looked up)
Granulocyte …: TPLGPASSLPQSFLLKCLEQVRKIQGDGAALQEKLVSECATYKLCHPEELVLLGHSLGIPWAPLSSCPSQALQLAGCLSQLHSGLFLYQGLLQALEGISPELGPTLDTLQLDVADFATTIWQQMEELGMAPALQPTQGAMPAFASAFQRRAGGVLVASHLQSFLEVSYRVLRHLAQP
Consider B3, for which the STATS in experiment [3] is given as 1,3.

B4: IL-10: ligand of the IFN family in the Jaks-STATs table (protein, UniProt P22301 19-178, looked up)
Interleukin-10: SPGQGTQSENSCTHFPGNLPNMLRDLRDAFSRVKTFFQMKDQLDNLLLKESLLEDFKGYLGCQALSEMIQFYLEEVMPQAENQDPDIKAHVNSLGENLKTLRLRLRRCHRFLPCENKSKAVEQVKNAFNKLQEKGIYKAMSEFDIFINYIEAYMTMKIRN
B4: the STATS in experiment [3] is given as 1,3.

B5: IL-7: g-C family ligand (lymphocytes) (protein, UniProt P13232 26-177, looked up)
Interleukin-7: DCDIEGKDGKQYESVLMVSIDQLLDSMKEIGSNCLNNEFNFFKRHICDANKEGMFLFRAARKLRQFLKMNSTGDFDLHLLKVSEGTTILLNCTGQVKGRKPAALGEAQPTKSLEENKSLKEQKKLNDLCFLKRLLQEIKTCWNKILMGTKEH
As to B5, in experiment [3], the STATS is 5. Moreover, in experiment [4], the “GAS or ISRE” value was “GAS”.

B6: IL-12: gp130 family ligand (Pleiotropic) (protein, UniProt P29459 23-219; P29460 23-328, looked up)
Interleukin-12 subunit alpha: RNLPVATPDPGMFPCLHHSQNLLRAVSNMLQKARQTLEFYPCTSEEIDHEDITKDKTSTVEACLPLELTKNESCLNSRETSFITNGSCLASRKTSFMMALCLSSIYEDLKMYQVEFKTMNAKLLMDPKRQIFLDQNMLAVIDELMQALNFNSETVPQKSSLEEPDFYKTKIKLCILLHAFRIRAVTIDRVMSYLNAS
Interleukin-12 subunit beta: IWELKKDVYVVELDWYPDAPGEMVVLTCDTPEEDGITWTLDQSSEVLGSGKTLTIQVKEFGDAGQYTCHKGGEVLSHSLLLLHKKEDGIWSTDILKDQKEPKNKTFLRCEAKNYSGRFTCWWLTTISTDLTFSVKSSRGSSDPQGVTCGAATLSAERVRGDNKEYEYSVECQEDSACPAAEESLPIEVMVDAVHKLKYENYTSSFFIRDIIKPDPPKNLQLKPLKNSRQVEVSWEYPDTWSTPHSYFSLTFCVQVQGKSKREKKDRVFTDKTSATVICRKNASISVRAQDRYYSSSWSEWASVPCS
Turning to B6, in experiment [3], the STATS is 1,3.

B7: CNTF: gp130 family ligand (Pleiotropic) (protein)
chain: MAFTEHSPLTPHRRDLCSRSIWLARKIRSDLTALTESYVKHQGLNKNINLDSADGMPVASTDQWSELTEAERLQENLQAYRTFHVLLARLLEDQQVHFTPTEGDFHQAIHTLLLQVAAFAYQIEELMILLEYKIPRNEADGMPINVGDGGLFEKKLWGLKVLQELSQWTVRSIHDLRFISSHQTGIPARGSHYIANNKKM
modifications: homo sapiens
Turning to B7, in experiment [3], the STATS is reported as 1,3.

B8: IL-11: gp130 family ligand (Pleiotropic) (protein, UniProt P20809 22-199, looked up)
Interleukin-11: PGPPPGPPRVSPDPRAELDSTVLLTRSLLADTRQLAAQLRDKFPADGDHNLDSLPTLAMSAGALGALQLPGVLTRLRADLLSYLRHVQWLRRAGGSSLKTLEPELGTLQARLDRLLRRLQLLMSRLALPQPPPDPPAPPLAPPSSAWGGIRAAHAILGGLHLTLDWAVRGLLLLKTRL
On to B8, for which, in experiment [3], the STATS is given as 1,3.

B9: CSF-1: ligand of Receptor Tyrosine Kinases (protein, UniProt P09603 33-554, looked up)
Macrophage colony-stimulating …: EEVSEYCSHMIGSGHLQSLQRLIDSQMETSCQITFEFVDQEQLKDPVCYLKKAFLLVQDIMEDTMRFRDNTPNAIAIVQLQELSLRLKSCFTKDYEEHDKACVRTFYETPLQLLEKVKNVFNETKNLLDKDWNIFSKNCNNSFAECSSQDVVTKPDCNCLYPKAIPSSDPASVSPHQPLAPSMAPVAGLTWEDSEGTEGSSLLPGEQPLHTVDPGSAKQRPPRSTCQSFEPPETPVVKDSTIGGSPQPRPSVGAFNPGMEDILDSAMGTNWVPEEASGEASEIPVPQGTELSPSRPGGGSMQTEPARPSNFLSASSPLPASAKGQQPADVTGTALPRVGPVRPTGQDWNHTPQKTDHPSALLRDPPEPGSPRISSLRPQGLSNPSTLSAQPQLSRSHSSGSVLPLGELEGRRSTRDRRSPAEPEGGPASEGAARPLPRFNSVPLTDTGHERQSEGSFSPQLQESVFHLLVPSVILVLLAVGGLLFYRWRRRSHQEPQRADSPLEQPEGSPLTQDDRQVELPV
For the molecule B9, the STATS in experiment [3] was 1,3. In experiment [4], the “GAS or ISRE” value is listed as “GAS (not”.
